Consider 4 compounds from patent publication US20080119527A1, “Composition for combating the localized hyperpigmentation of dark skin” (L'OREAL, priority 2006, published 2008).

Holding throughout (type): cell-based
In series [1] the test system is coculture of normal human keratinocytes and melanocytes. Put plainly: Tritiated leucine incorporation (proliferation and early cytotoxicity indicator) in the coculture. An excerpt:
(§1) Specifically, 50 000 normal human keratinocytes and 17 000 normal human melanocytes are mixed together and inoculated per well in 96-well plates (Costar type) and cultured for three days in the differentiation medium. During the following three days, the culture medium is replaced daily with the defined test medium (containing the products to be evaluated, and also 3 μCi/ml of C14-labelled thiouracil).
The total radioactivity incorporated into the proteins is estimated by the incorporation of tritiated leucine, taken as the proliferation indicator and the early cytotoxicity indicator. On the day before the sample is taken, 1 μCi/ml of tritiated leucine is added to the test medium. It is considered that a product is cytotoxic when the content of tritiated leucine falls by at least 30%.
(§2) After one night, the cells are rinsed in phosphate buffer (phosphate-buffered saline, PBS). The proteins are precipitated using 5% trichloracetic acid (TCA) and washed in order to remove the free radioactivity. The proteins are incubated overnight at 37° C. using a proteinase K solution at 20 μl/ml in tris-HCl-Triton EDTA buffer.
(§3) 50 μl of total extract are taken and transferred into a 96-well plate (Wallac) and 150 μl of scintillation liquid (Optiphase “Supermix”) are added. The rest of the extract, i.e. 950 μl, is filtered through a DEAE Filtermat filter. After rinsing, the filter covered with the “Meltilex” solid scintillant is transferred into a counting plate. The radioactivity is counted using a Wallac counter. The results are expressed as a percentage of the control according to the formula: […]

Series [2] has the same test system. Put plainly: Melanogenesis modulation: 14C-thiouracil incorporation in keratinocyte/melanocyte coculture. As to the method: Measurement of the melanogenesis-modulating effect of the copolymer of styrene/hydrolysed maleic anhydride (50/50) in sodium salt form, at 40% in water (SMA1000HNa® from the company Cray Valley), in the presence or absence of ascorbic acid, on a coculture of normal human keratinocytes and melanocytes.
The melanogenesis-modulating effect of the copolymer SMA1000HNa® was tested according to the method described in patent FR-A-2 734 825, and also in the article by R. Schmidt, P. Krien and M. Régnier, Anal. Biochem., 235(2), 113-18, 1996.
Briefly, the method comprises the steps consisting in:
coculturing normal human keratinocytes/melanocytes in a medium containing the tested extract and also a labelled melanin precursor, in the present case C14-labelled thiouracil,
lysing the cells containing the melanin with protein-degrading enzymes,
passing the extract obtained through an anion-exchange filter with a pore diameter of less than or equal to 1 μm, and
evaluating the amount of melanin bound by the filter by means of radioactive assay of the thiouracil.
as §1
The following controls are prepared: • control culture: test medium • positive melanogenesis-stimulating control: test medium+1 mM tyrosine; • 3 positive melanogenesis-inhibiting controls: test medium+, respectively, 500 μM of kojic acid; 100 μM of arbutin; […] of lucinol (2-butyl-1,3-benzenediol).
as §2, §3
14CP is the mean of the disintegrations per minute (dpm) of 14C-thiouracil on 3 similar wells treated with a product (P);
3HP is the mean of the dpm of the corresponding 3H-leucine;
14CT is the mean of the dpm of 14 C-thiouracil on 3 similar control wells (T);
3HT is the mean of the dpm of the corresponding 3H-leucine.
The ratio of the incorporation of thiouracil to the incorporation of leucine is calculated, to normalize the melanogenesis to the amount of proteins present in the well. This ratio reflects the melanogenesis modulation.

Series [3] deals with Normal human melanocyte/keratinocyte cocultures (NHM/NHK). Put plainly: Protein assay per well (toxicity estimate) in UV-irradiated NHM/NHK coculture. As to the method: (§4) Normal human melanocyte/keratinocyte cocultures (NHM/NHK) undergo 1 irradiation with UV radiation, repeated daily for 4 days, in the presence or absence of the products to be evaluated. The melanin synthesis is quantified as previously by means of the incorporation of ^14C-thiouracil present in the culture medium. In parallel, a protein assay is performed in each well in order to normalize the melanin synthesis and to estimate the toxicity of the product.
(§5) For each experimental condition, cell lysates are performed by rinsing the cells with a phosphate buffer (PBS). The proteins are precipitated using 5% trichloracetic acid (TCA) and washed in order to remove the free radioactivity. The proteins are incubated over a weekend at 37° C. using a proteinase K solution at 20 μl/ml in tris HCl-Triton-EDTA buffer.
(§6) 5 μl of total extract are taken and transferred into a 96-well plate (Wallac). The proteins are assayed using the Protein Assay Reagent assay kit (Pierce). The amount of proteins per well (P) will be used to normalize the melanogenesis. The rest of the extract is filtered on a DEAE Filtermat filter (Wallac). After rinsing, the filter covered with “Meltilex” solid scintillant (Wallac) is transferred into a Costar counting plate. The radioactivity is counted using a Wallac counter and allows quantification of the melanogenesis (M) by measurement of the ^14C-thiouracil (ccpm) incorporated by the cells.

For series [4] the test system is unchanged. Briefly: Photoinduced melanogenesis (UV irradiation) in NHM/NHK coculture, anti-pigmentation protocol.
Description: Measurement of the photoinduced melanogenesis-modulating effect of the polymer SMA1000HNa® in the presence or absence of ascorbic acid on a coculture of normal human keratinocytes and melanocytes (anti-pigmentation effect).
as §4
More specifically, the melanocytes and keratinocytes are inoculated, respectively, at 80 000 and 250 000 cells per well in 24-well plates in the keratinocyte differentiation medium. The plates are incubated for 3 days at 37° C. before treatment.
To avoid photo-oxidation of one of its components, the culture medium is replaced at the time of irradiation with a solution of the products in PBS. The products are placed in contact with the cells for 15 minutes before irradiation.
The UV irradiation is performed using a sun simulator. The delivered dose is 7 J/cm^2. Irradiation source: Oriel Xénon 1000W simulator+dichroic filter+WG 320/1.5 mm.
The following controls are prepared:
Non-irradiated control (quantification of the constitutive melanogenesis)
Blank irradiation control
2 positive controls of photoinduced melanogenesis inhibition: (100 μM arbutin; 1 μM lucinol).
After irradiation, the PBS is removed and the cells are incubated in a semi-defined culture medium to which are added the products and the ^14C-thiouracil (1 μCi/ml). This treatment is repeated daily for 4 days.
as §5, §6
Normalized melanogenesis (NM)=M/P
Photo-induced melanogenesis (PIM)=NM (irradiated sample)−NM (non-irradiated sample)
Anti-pigmenting effect of the product (%)=[[PIM(irradiated+treated sample)−PIM(irradiated sample)]/PIM(irradiated sample)]×100

pIC50: −log10 of the molar value.

Consider `OC[C@H]1O[C@@H](Oc2ccc(O)cc2)[C@H](O)[C@@H](O)[C@@H]1O` [Arbutin, arbutin], for which, in series [1] (100 μM), the “3H Leu. (%/Control)” value is −8%. Also, in series [2] (100 μM), the “14C ThioU. (%/Control)” value is on record as −49% and the “14C ThioU./3H Leu.” value is −44%. Moreover, the “Proteins (%/non-irradiated control)” value in series [3] (100 μM + SSR) was −15%. In series [4] (100 μM + SSR), the “Anti-pigmenting effect of the product” value is on record as −111% and the “PIM (%/non-irradiated control)” value is given as −24%.

Turning to `O=c1cc(CO)occ1O` [Kojic acid, kojic acid], the “3H Leu. (%/Control)” value in series [1] (500 μM) is listed as −8%. Besides, in series [2] (500 μM), the “14C ThioU. (%/Control)” value was −56% and the “14C ThioU./3H Leu.” value is −52%.

Turning to `N[C@@H](Cc1ccc(O)cc1)C(=O)O` [Tyrosine, tyrosine], the “3H Leu. (%/Control)” value in series [1] (1 mM) is “+6%”. In addition, in series [2] (1 mM), the “14C ThioU. (%/Control)” value turned out to be 96% and the “14C ThioU./3H Leu.” value was determined as 85%.

With `O=C1O[C@H]([C@@H](O)CO)C(O)=C1O` [vitamin C, ascorbic acid], the “3H Leu. (%/Control)” value in series [1] (vitamin C 0.1 mM) is reported as 0%; in series [1] (vitamin C 0.3 mM), −17%; in series [1] (vitamin C 0.4 mM), −23%; in series [1] (vitamin C 0.6 mM), −23%. Moreover, the pIC50 was approximately 3.64 in series [2] (Homo sapiens, vitamin C alone, read-out: IC50 (14C ThioU./3H Leu.)) and approximately 3.33 in series [4] (Homo sapiens, vitamin C alone, read-out: IC50 (anti-pigmenting effect)). For the same compound, the “14C ThioU. (%/Control)” value in series [2] (vitamin C 0.1 mM) is recorded as −14%; in series [2] (vitamin C 0.3 mM) it was −69%; in series [2] (vitamin C 0.4 mM), −79%; in series [2] (vitamin C 0.6 mM) it was −76%. Moreover, the “14C ThioU./3H Leu.” value in series [2] (vitamin C 0.1 mM) is −14%; in series [2] (vitamin C 0.3 mM) it was −62%; in series [2] (vitamin C 0.4 mM), −72%; in series [2] (vitamin C 0.6 mM), −68%. Further, the “Proteins (%/non-irradiated control)” value in series [3] (vitamin C 0.3 mM, UV irradiated) is listed as −12%; in series [3] (vitamin C 1 mM, UV irradiated), −19%; in series [3] (vitamin C 2 mM, UV irradiated), −19%; in series [3] (vitamin C 3 mM, UV irradiated), −22%. For the same compound, the “Anti-pigmenting effect of the product” value was −40% in series [4] (vitamin C 0.3 mM), −65% in series [4] (vitamin C 1 mM), −90% in series [4] (vitamin C 2 mM) and −100% in series [4] (vitamin C 3 mM). Also, the “PIM (%/non-irradiated control)” value is recorded as 134% in series [4] (vitamin C 0.3 mM), 78% in series [4] (vitamin C 1 mM), 23% in series [4] (vitamin C 2 mM) and 0% in series [4] (vitamin C 3 mM).
